Columns and labels:
Alternaria brassicae = experiment: In vivo test on Alternaria brassicae (leaf spot of crucifers) on radish plants; details: for pest or weed control at 330 ppm: Alternaria brassicae, dose of 330 ppm, radish plants sprayed 24 hours before contamination, grading 6 to 7 days after contamination vs control plants, read-out: good (at least 50%) or total protection; for effectiveness on Alternaria brassicae: comparison compounds of WO 01/11965, 330 ppm
Procedure: In Vivo Test on Alternaria brassicae (Leaf Spot of Crucifers)
(§1) The active ingredient tested is prepared by potter homogenisation in a concentrated suspension type formulation at 100 g/l. This suspension is then diluted with water to obtain the desired active material concentration.
Radish plants (Pernot variety) in starter cups, sown on a 50/50 peat soil-pozzolana substrate and grown at 18-20° C., are treated at the cotyledon stage by spraying with the aqueous suspension described above.
(§2) Plants, used as controls, are treated with an aqueous solution not containing the active material.
After 24 hours, the plants are contaminated by spraying them with an aqueous suspension of Alternaria brassicae spores (40,000 spores per cm^3). The spores are collected from a 12 to 13 days-old culture.
The contaminated radish plants are incubated for 6-7 days at about 18° C., under a humid atmosphere.
Grading is carried out 6 to 7 days after the contamination, in comparison with the control plants.

Pyrenophora teres = experiment: In vivo test on Pyrenophora teres (barley net blotch); details: 288 h, dose of 330 ppm, barley plants sprayed 24 hours before contamination, grading 12 days after contamination vs control plants, read-out: good (at least 50%) or total protection
Procedure: In Vivo Test on Pyrenophora teres (Barley Net Blotch)
as §1
(§3) Barley plants (Express variety) in starter cups, sown on a 50/50 peat soil-pozzolana substrate and grown at 12° C., are treated at the 1-leaf stage (10 cm tall) by spraying with the aqueous suspension described above. Plants, used as controls, are treated with an aqueous solution not containing the active material.
After 24 hours, the plants are contaminated by spraying them with an aqueous suspension of Pyrenophora teres spores (12,000 spores per ml). The spores are collected from a 12-day-old culture. The contaminated barley plants are incubated for 24 hours at about 20° C. and at 100% relative humidity, and then for 12 days at 80% relative humidity.

[1] = test system: Erysiphe graminis f. sp. tritici; experiment: In vivo test on Erysiphe graminis f. sp. tritici (powdery mildew of wheat); details: Blumeria graminis; dose of 330 ppm; wheat plants sprayed 24 hours before contamination; grading 7 to 14 days after contamination vs control plants; read-out: good (at least 50%) or total protection
Procedure: In Vivo Test on Erysiphe graminis f. sp. tritici (Powdery Mildew of Wheat)
as §1
Wheat plants (Audace variety) in starter cups, sown on 50/50 peat soil-pozzolana substrate and grown at 12° C., are treated at the 1-leaf stage (10 cm tall) by spraying with the aqueous suspension described above.
as §2
After 24 hours, the plants are contaminated by dusting them with Erysiphe graminis f. sp. tritici spores, the dusting being carried out using diseased plants.
Grading is carried out 7 to 14 days after the contamination, in comparison with the control plants.
Under these conditions, good (at least 50%) or total protection is observed at a dose of 330 ppm with the following compounds: 1, 3, 4, 5, 6, 8, 9, 10, 11, 12, 13, 18, 38, 50, 43 and 45.

Botrytis cinerea = experiment: In vivo test on Botrytis cinerea (cucumber grey mould); details: for pest or weed control at 330 ppm: Botrytis cinerea, dose of 330 ppm, cucumber plants sprayed 24 hours before contamination, grading 5/7 days after contamination vs control plants, read-out: good (at least 50%) or total protection; for effectiveness on Botrytis cinerea: comparison compounds of WO 01/11965, 330 ppm
Procedure: In Vivo Test on Botrytis cinerea (Cucumber Grey Mould)
as §1
as §3, with “Cucumber” for “Barley”, “(Marketer” for “(Express”, “18-20°” for “12°”, “cotyledon Z11” for “1-leaf”, “stage” for “stage (10 cm tall)”
After 24 hours, the plants are contaminated by depositing drops of an aqueous suspension of Botrytis cinerea spores (150,000 spores per ml) on upper surface of the leaves. The spores are collected from a 15-day-old culture and are suspended in a nutrient solution composed of:
The contaminated cucumber plants are settled for 5/7 days in a climatic room at 15-11° C. (day/night) and at 80% relative humidity.
Grading is carried out 5/7 days after the contamination, in comparison with the control plants. Under these conditions, good (at least 50%) or total protection is observed at a dose of 330 ppm with the following compounds: 1, 2, 3, 4, 5, 6, 9, 10, 13, 18, 21, 22, 23, 25, 26, 27, 28, 29, 32, 34, 35, 38, 40, 43, 44, 45, 46, 47, 50, 51, 52, 53, 57 and 62.

Structure (SMILES)	pest or weed control at 330 ppm (Alternaria brassicae)	pest or weed control at 330 ppm (Pyrenophora teres)	pest or weed control at 330 ppm (Botrytis cinerea)	other results
CC(CNC(=O)c1ccccc1C(F)(F)F)c1ncc(Cl)cc1Cl (centres unmarked) [Compound 60]	≥ 50%	≥ 50%		
Cc1ccc(Cl)c(CCNC(=O)c2ccccc2C(F)(F)F)n1 [Compound 56]	≥ 50%	≥ 50%		
O=C(NCCc1nc(F)c(F)cc1F)c1ccccc1C(F)(F)F [Compound 12]	≥ 50%	≥ 50%		pest or weed control at 330 ppm [1]: ≥ 50%
O=C(NCCc1nc(F)c(Cl)cc1Cl)c1ccccc1Br [Compound 58]	≥ 50%	≥ 50%		
O=C(NCCc1ncc(Cl)cc1F)c1ccccc1I [Compound 21]	≥ 50%	≥ 50%	≥ 50%	
O=C(NCCc1nc(F)c(Cl)cc1F)c1ccccc1I [Compound 63]	≥ 50%	≥ 50%		
O=C(NCCc1ncc(Cl)cc1F)c1ccccc1C(F)F [Compound 29]			≥ 50%	
CNC(=O)C(Cc1ncc(C(F)(F)F)cc1Cl)NC(=O)c1ccccc1 (centres unmarked) [compound 314, N-{1-methylcarbamoyl-2-[3-chloro-5-(trifluoromethyl)-2-pyridinyl]ethyl}-benzamide, reference compound]				effectiveness on Botrytis cinerea (Botrytis cinerea): zero effectiveness
O=C(NCCc1nc(Cl)c(Cl)cc1Cl)c1ccccc1I [Compound 22]			≥ 50%	
O=C(NCCc1nc(F)c(F)cc1F)c1ccccc1Br [Compound 47]	≥ 50%	≥ 50%	≥ 50%	
O=C(NCCc1nc(F)c(Cl)cc1Cl)c1ccccc1C(F)(F)F [Compound 57]	≥ 50%	≥ 50%	≥ 50%	
Cc1ccccc1C(=O)NCCc1ncc(Cl)cc1Cl [Compound 3]	≥ 50%	≥ 50%	≥ 50%	pest or weed control at 330 ppm [1]: ≥ 50%
CC(CNC(=O)c1cc(F)ccc1Cl)c1ccc(Cl)cn1 (centres unmarked) [Compound 7]	≥ 50%			
O=C(NCCc1nc(F)c(Cl)cc1Cl)c1ccccc1I [Compound 34]	≥ 50%	≥ 50%	≥ 50%	
O=C(NCCc1nc(Cl)ccc1Cl)c1ccccc1I [Compound 36]	≥ 50%	≥ 50%		
O=C(NCCc1nc(Cl)c(Cl)cc1Cl)c1ccccc1C(F)(F)F [Compound 23]			≥ 50%	
O=C(NCCc1nc(F)c(F)cc1F)c1ccccc1Cl [Compound 48]		≥ 50%		
O=C(NCCc1nc(Cl)ccc1Cl)c1ccccc1C(F)F [Compound 41]	≥ 50%	≥ 50%		
Cc1c(F)c(F)nc(CCNC(=O)c2ccccc2C(F)(F)F)c1F [Compound 42]		≥ 50%		
CC(CNC(=O)c1ccccc1I)c1ccc(Cl)cn1 (centres unmarked) [Compound 65]		≥ 50%		

Structure (SMILES)	pest or weed control at 330 ppm (Alternaria brassicae)	pest or weed control at 330 ppm (Pyrenophora teres)	pest or weed control at 330 ppm (Botrytis cinerea)	other results
CCNC(=O)C(Cc1ncc(C(F)(F)F)cc1Cl)NC(=O)c1ccc(Cl)cc1 (centres unmarked) [compound 306, N-{1-ethylcarbamoyl-2-[3-chloro-5-(trifluoromethyl)-2-pyridinyl]ethyl}-4-chlorobenzamide, reference compound]				effectiveness on Botrytis cinerea (Botrytis cinerea): zero effectiveness
CC(CNC(=O)c1ccccc1I)c1ncc(Cl)cc1Cl (centres unmarked) [Compound 61]	≥ 50%	≥ 50%		
CNC(=O)C(Cc1ncc(C(F)(F)F)cc1Cl)NC(=O)c1ccc(OC)cc1 (centres unmarked) [compound 315, N-{1-methylcarbamoyl-2-[3-chloro-5-(trifluoromethyl)-2-pyridinyl]ethyl}-4-methoxybenzamide, reference compound]				effectiveness on Botrytis cinerea (Botrytis cinerea): zero effectiveness
CCNC(=O)C(Cc1ncc(C(F)(F)F)cc1Cl)NC(=O)c1ccccc1 (centres unmarked) [compound 304, N-{1-ethylcarbamoyl-2-[3-chloro-5-(trifluoromethyl)-2-pyridinyl]-ethyl}-benzamide, reference compound]				effectiveness on Botrytis cinerea (Botrytis cinerea): zero effectiveness
O=C(NCCc1ccc(Cl)cn1)c1ccccc1Br [Compound 39]		≥ 50%		
O=C(NCCc1ncc(Br)cc1Cl)c1ccccc1Br [Compound 52]	≥ 50%	≥ 50%	≥ 50%	
O=C(NCCc1ncc(Cl)cc1Br)c1ccccc1I [Compound 40]	≥ 50%	≥ 50%	≥ 50%	
O=C(NCCc1nc(Cl)ccc1Cl)c1ccccc1C(F)(F)F [Compound 35]	≥ 50%	≥ 50%	≥ 50%	
Cc1ccc(CCNC(=O)c2ccccc2I)nc1 [Compound 14, N-[2-(5-methyl-2-pyridinyl)ethyl]-2-(iodo)benzamide]	≥ 50%			
O=C(NCCc1ccc(Cl)cn1)c1ccccc1I [Compound 24]	≥ 50%			
O=C(NCCc1nc(F)c(Cl)cc1Cl)c1ccccc1Cl [Compound 59]	≥ 50%	≥ 50%		
O=C(NCCc1ncc(Cl)cc1Cl)c1ccccc1Cl [Compound 2]	≥ 50%	≥ 50%	≥ 50%	
O=C(NCCc1nc(Cl)ccc1Cl)c1ccccc1Br [Compound 37]	≥ 50%	≥ 50%		
O=C(NCCc1ccc(Cl)cn1)c1ccccc1C(F)(F)F [Compound 20]	≥ 50%			
O=C(NCCc1ncccc1Cl)c1ccccc1C(F)(F)F [Compound 6, N-[2-(3-chloro-2-pyridinyl)ethyl]-2-(trifluoromethyl)benzamide]	≥ 50%		≥ 50%	pest or weed control at 330 ppm [1]: ≥ 50%
CNC(=O)C(Cc1ncc(C(F)(F)F)cc1Cl)NC(=O)c1ccc(-c2ccccc2)cc1 (centres unmarked) [compound 316, N-{1-methylcarbamoyl-2-[3-chloro-5-(trifluoromethyl)-2-pyridinyl]-ethyl}-4-phenylbenzamide, reference compound]				effectiveness on Alternaria brassicae (Alternaria brassicae): poor effectiveness; effectiveness on Botrytis cinerea (Botrytis cinerea): zero effectiveness
CCNC(=O)C(Cc1ncc(C(F)(F)F)cc1Cl)NC(=O)c1cccc([N+](=O)[O-])c1 (centres unmarked) [compound 307, N-{1-ethylcarbamoyl-2-[3-chloro-5-(trifluoromethyl)-2-pyridinyl]ethyl}-3-nitrobenzamide, reference compound]				effectiveness on Alternaria brassicae (Alternaria brassicae): poor effectiveness; effectiveness on Botrytis cinerea (Botrytis cinerea): zero effectiveness
CCNC(=O)C(Cc1ncc(C(F)(F)F)cc1Cl)NC(=O)c1ccccc1Br (centres unmarked) [compound 310, N-{1-ethylcarbamoyl-2-[3-chloro-5-(trifluoromethyl)-2-pyridinyl]ethyl}-2-bromobenzamide, reference compound]				effectiveness on Botrytis cinerea (Botrytis cinerea): zero effectiveness
Cc1ccccc1C(=O)NCCc1nc(F)c(F)c(C)c1F [Compound 49]	≥ 50%	≥ 50%		
O=C(NCCc1nc(F)c(Cl)cc1F)c1ccccc1C(F)(F)F [Compound 62]	≥ 50%	≥ 50%	≥ 50%	

From patent publication US7723364B2, “N-[2-(2-pyridinyl) ethyl]benzamide compounds and their use as fungicides” (Bayer Cropscience SA, priority 2003, dated 2010)
